The term IC50 denotes the point on the concentration scale where inhibition reaches its midpoint.

The source of these data is US4678799A, “1,2(1,4)-dimethyl-4(2)-(2-hydroxyethyl)-5-nitro-imidazole antiprotozoal agents with reduced mutagenicity” (Merck & Co., Inc., priority 1984, dated 1987).

≈ marks a conversion by molar mass, not a printed value. Read-outs that look alike come from different tables or passages of the source.

One series has as its system T. foetus. Briefly: In vitro antiprotozoal activity against T. foetus. The format is cell-based. Conditions: Tritrichomonas foetus, read-out: Activity IC50 T. foetus. From the text:
(§1) Several 5-nitroimidazoles have been tested for in vitro antiprotozoal activity against T. foetus, T. vaginalis, and G. lamblia.

In another series the test system is T. vaginalis. Briefly: In vitro antiprotozoal activity against T. vaginalis. The format is cell-based. Conditions: Trichomonas vaginalis, read-out: Activity IC50 T. vaginalis.
Text: as §1

The next series concerns Mammalian rat hepatocyte. Briefly: DNA single strand breaks in mammalian rat hepatocytes (genotoxicity). The settings on record: % relative to parent compound not containing 4-substituent.
Text: as §1
^b Mammalian rat hepatocyte single strand DNA breaks expressed as %
relative to parent compound not containing 4substituent.

The next series deals with G. lamblia. Nature of the series: In vitro antiprotozoal activity against G. lamblia. Conditions: Giardia duodenalis, read-out: Activity IC50 G. lamblia. The format is cell-based.
Text: as §1

For series [1] the following is noted: background; cited from earlier work.
The conditions of series [2]: background; cited from earlier work. The source holds these as a separate data set.
The next series has as its system protozoa and bacteria. Conditions: U.S. Pat. No. 3,646,027; cited from earlier work.

Consider `Cc1nc(COC(N)=O)n(C)c1[N+](=O)[O-]` [III, (1,4-Dimethyl-5-nitroimidazol-2-yl)methylcarbamate], for which the IC50 amounted to 1 µg/mL (≈ 4.67 µM) in the series on T. foetus (in vitro, T. foetus); 1.9 µg/mL (≈ 8.87 µM) with T. vaginalis (in vitro, T. vaginalis); 25 µg/mL (≈ 117 µM) in the series with G. lamblia (in vitro, G. lamblia). Besides, the “Extent of DNA Damage” value in the series with Mammalian rat hepatocyte came out at 6%.

For `Cc1nc(CCO)c([N+](=O)[O-])n1C` [Compound V], the half-inhibitory concentration (IC50) is 5.25 µg/mL (≈ 28.4 µM) with T. foetus (in vitro, T. foetus); 9 µg/mL (≈ 48.6 µM) in the series on T. vaginalis (in vitro, T. vaginalis); 25 µg/mL (≈ 135 µM) in the series with G. lamblia (in vitro, G. lamblia).

`Cc1ncc([N+](=O)[O-])n1CCO` [II]: the IC50 in the series with T. foetus (in vitro, T. foetus) was 0.43 µg/mL (≈ 2.51 µM); in the series with T. vaginalis (in vitro, T. vaginalis), 0.58 µg/mL (≈ 3.39 µM); in the series with G. lamblia (in vitro, G. lamblia) it was 2 µg/mL (≈ 11.7 µM). Further, the “Extent of DNA Damage” value in the series with Mammalian rat hepatocyte was 100%.

Regarding `Cc1nc(CCO)n(C)c1[N+](=O)[O-]` [IV, 1,4-Dimethyl-2-(2-hydroxyethyl)-5-nitroimidazole], the IC50 in the series with T. foetus (in vitro, T. foetus) amounted to 1.9 µg/mL (≈ 10.3 µM); in the series on T. vaginalis (in vitro, T. vaginalis), 12.5 µg/mL (≈ 67.5 µM); in the series on G. lamblia (in vitro, G. lamblia) it was 25 µg/mL (≈ 135 µM).

In the case of `Cn1c([N+](=O)[O-])cnc1COC(N)=O` [I], the “drug residual levels” value in series [1] was “high drug residual levels”. Further, the IC50 in the series with T. foetus came to 0.42 µg/mL (≈ 2.1 µM); with T. vaginalis, 0.54 µg/mL (≈ 2.7 µM); in the series with G. lamblia, 0.9 µg/mL (≈ 4.5 µM). Further, in series [2], the “mutagenicity” value is “strong mutagenicity”. In addition, the “activity against protozoa and bacteria” value in the series on protozoa and bacteria is “potent”. The “Extent of DNA Damage” value in the series with Mammalian rat hepatocyte is given as 100%.
